Patent US20240002350A1, “PROTEIN AND LIPID THERAPEUTIC TARGETS” (UNIVERSITY OF PITTSBURGH-OF THE COMMONWEALTH SYSTEM OF …, priority 2020, published 2024)
Read-outs that look alike come from different tables or passages of the source.

Legend:
[1] = test system: 15LOX/PEBP1 complex; assay: Inhibition of activity of 15LOX/PEBP1 complex; assay type: biochemical
Description: (§1) It was established that a change in substrate specificity of 15LOX is achieved upon complex formation with PEBP1 whereby structural rearrangements are mainly responsible for the selectivity and specificity leading to the formation of 15-HOO-AA-PE as the oxidation product. Thus, new selective anti-ferroptotic inhibitors of 15LOX/PEBP1 complex were designed. These inhibitors should not interfere with oxidation of free AA, DPA, DHA. […] The compound is a poor inhibitor of 15LOX alone with free AA as a substrate. […] Site 1 is at 15LOX/PEBP1 binding interface (binding energy −10.1 kcal/mol) and site 2 is at catalytic site (binding energy −8.9 kcal/mol).
(§2) Development and testing of new compounds that inhibit 15LOX/PEBP1 complex activity. A combination of computational and experimental studies are used. […] Computer modeling considers specific features of organization of 15LOX/PEBP1 complexes and positioning of AA-PE as well as regio-specific oxygenation of AA-residues at 15th carbon. […] The compounds that inhibit cell death by at least 50% are then evaluated for their effects on AA-PE and AA oxidation by 15LOX/PEBP1 complex and 15LOX alone, respectively, by LC-MS. […]

[2] = test system: 15LOX alone; assay: Inhibition of 15LOX alone with free AA as a substrate; assay type: biochemical; details: 20 μM
Description: as §1, §2

[3] = test system: whole body irradiation (9.25Gy); assay: Survival after whole body irradiation; assay type: in vivo; details: oxidant injury induced by ionizing radiation
Description: (§3) FIGS. 7A-7C show 15LOX/[…] complex inhibitor, NCGC00599973-01.
as §1

[4] = test system: HOO-AA-PE; assay: RSL3-induced accumulation of pro-ferroptotic HOO-AA-PE in vitro; assay type: cell-based
Description: as §3, §1

[5] = test system: 15LOX/PEBP1; assay: Potency of 15LOX/PEBP1 inhibitors with anti-ferroptotic effect (Table 1); assay type: cell-based
Description: Development and testing of new compounds that inhibit 15LOX/PEBP1 complex activity. A combination of computational and experimental studies are used. […] Computer modeling considers specific features of organization of 15LOX/PEBP1 complexes and positioning of AA-PE as well as regio-specific oxygenation of AA-residues at 15th carbon. […] It has been shown that: i) binding interface of 15LOX in 15LOX/PEBP1 complex includes a helix on 15LOX (α2) and kinase binding epitope (D144, H145, R146) on PEBP1 (FIG. 8); and ii) interfacial interactions play a pivotal role in allosterically altering conformational dynamics of 15LOX in complex, and its substrate specificity. Analysis of change in access to catalytic site upon PEBP1 binding, using elastic network models indicates needed sites at 15LOX/PEBP1 binding interface. Dynamics simulations are also performed, for 15LOX alone and 15LOX/PEBP1 complex. An effective inhibitor, NCG-01, with in vivo activity has been indicated. Several other 15LOX/PEBP1 inhibitors with anti-ferroptotic effect (FIG. 9) have been identified. To test the effectiveness of compounds identified from the computational screen, RSL3 and mechanical stretch models with LDH and PI assays as a primary outcome are performed. The compounds that inhibit cell death by at least 50% are then evaluated for their effects on AA-PE and AA oxidation by 15LOX/PEBP1 complex and 15LOX alone, respectively, by LC-MS. Evaluation of the effect of compounds in suppressing AA-PE-OOH formation in cells upon proferroptotic stimuli is also performed.

[6] = test system: ferroptosis triggered by RSL3 (GPX4 inhibition) or Erastin (GSH depletion) in cells; assay: Suppression of ferroptosis triggered by RSL3 or Erastin in cells; assay type: cell-based; details: read-out: half maximal activity, suppression of ferroptosis
Experimental: as §3
FER.1 (500 nM) is positive control. Insert: Chemical formula of two of the compounds.
as §1

Fc1cccc(-n2cc(-c3ccccc3)nc2SCc2ccc(C(F)(F)F)cc2)c1 [Compound 12, 1-(3-fluorophenyl)-4-phenyl-2-((4-(trifluoromethyl)benzyl)thio)-1H-imidazole]
activity of 15LOX/PEBP1 complex [1]: inhibits activity
inhibition of 15LOX alone [2]: ~4.5%
survival [3]: improves survival
RSL3-induced accumulation of pro-ferroptotic HOO-AA-PE [4]: suppresses
Potency [5]: ++ (++ = 101-1000 nM)
EC50 ([6]; ferroptosis triggered by Erastin (GSH depletion) in cells): 0.14 µM
EC50 ([6]; ferroptosis triggered by RSL3 (GPX4 inhibition) in cells): 0.175 µM
